Reference: PMC5854716, “Synthesis, molecular docking, ctDNA interaction, DFT calculation and evaluation of antiproliferative and anti-Toxoplasma gondii activities of 2,4-diaminotriazine-thiazole derivatives” (Medicinal Chemistry Research, 2018)

Key:
VERO cells = experiment: Cell viability assay (MTT), VERO; assay type: cell-based, Cercopithecus aethiops; conditions: 24 h; for CC30 VERO: concentration for 30% proliferation inhibition
Procedure: (§1) The epithelial cell line VERO (ATCC-Catalog No. CCL-81^TM), derived from the kidney of the African green monkey, Cercopithecus aethiops and fibroblast cell line L-929 (ATCC-Catalog No. CCL-1^TM), derived from Mus musculus (http://www.atcc.org) were grown in Iscoves’s Modified Dulbecco’s Medium (IMDM) supplemented with 10% (v/v) fetal bovine serum (FBS), plus 2 mM L-glutamine, 100 U/ml penicillin, 100.00 µg/ml streptomycin, 5 × 10^−5 M 2-mercaptoethanol and maintained at 37 °C in a 10% CO2 atmosphere. Subcultures were performed via enzymatic cell dissociation in 0.25% trypsin. After dissociation, the cells were placed in culture medium at 4 °C with 10% FBS to inhibit the action of trypsin. The isolated cells were centrifuged for 10 min at 1000×g at 4 °C, and the cells were grown in new bottles. This procedure was repeated when cells reached a confluence of ~90%. All commercial reactants and solvents were purchased from either Sigma-Aldrich Laborchemikalien GmbH (Dzitko et al. [2014]).
(§2) Suspensions of the compounds 4a–l were freshly prepared (5 mg/ml DMSO) before the cells were exposed, and diluted to appropriate concentrations; 0.9, 1.8, 3.9, 7.8, 15.6, 31.2, 62.5, and 125.00 μg/ml with the culture medium. Cells treated with 2.5% DMSO-solvent served as a control in each experiment.
(§3) The effects of tested compounds on the viability of mouse fibroblasts L929 and […] VERO cells were evaluated using the MTT assay. The MTT assay was used according to international standards: ISO 10993-5:2009 (Tests for in vitro cytotoxicity; http://www.iso.org/iso/catalogue_detail.htm? csnumber = 36406). L929 and VERO cells were plated into 96-well plates at a density of 1.0 × 10^4/100 μl/well in culture medium and allowed to attach for 24 h before treatment. Afterwards, culture medium in the plates was replaced by 100 μl compounds suspension at concentration of 0–125 μg/ml and the cells were exposed for 24 h. Then 1 mg/ml MTT (50 μl/well) was added to each well and incubated at 37 °C, 10 % CO2 for 2 h. Mitochondrial dehydrogenases of viable cells reduce the yellowish water-soluble MTT to water-insoluble formazan crystals, which were solubilized with dimethyl sulfoxide (DMSO). The cell culture medium was aspirated cautiously, after which 150 μl DMSO was added to each well and mixed thoroughly. Optical density (OD) was read on the ELISA reader (Multiskan EX, Labsystems; http://www.mtxlsi.com/multiskan_EX.htm) at 550 nm. The results were expressed as percentage viability compared with the treated 2.5% DMSO controls. All experiments were performed in triplicate.

[1] = test system: normal mouse fibroblast Balb/3T3 cells; experiment: In vitro cytotoxicity (SRB), Balb/3T3; assay type: cell-based; conditions: mean ± SD
Procedure: Biphenotypic B myelomonocytic leukemia MV4-11, human lung carcinoma A549, human breast carcinoma MCF-7, and normal mouse fibroblast BALB/3T3 cells were obtained from American Type Culture Collection (Rockville, Maryland, USA). All the cell lines are being maintained at the Institute of Immunology and Experimental Therapy, Wroclaw, Poland. MV4-11 cells were cultured in RPMI 1640 medium (Gibco, UK) with 2 mM L-glutamine adjusted to contain 1.0 mM sodium pyruvate, and 10% fetal bovine serum (FBS) (all from Sigma-Aldrich, Germany). A549 cells were cultured in RPMI 1640+ Opti-MEM (1:1) (both from Gibco, UK), MCF-7 cells in Eagle medium (IIET, Wroclaw, Poland), BALB/3T3 in Dulbecco medium (IIET, Poland) supplemented with 2 mM L-glutamine and 1.0 mM sodium pyruvate, 10% fetal bovine serum (all from Sigma-Aldrich, Germany). The MCF-7 cell culture was supplemented with 0.8 mg/l of insulin (Sigma-Aldrich, Germany). All culture media were supplemented with 100 units/ml penicillin, and 100 µg/ml streptomycin (both from Polfa Tarchomin S.A., Poland). All cell lines were grown at 37 °C with 5% CO2 humidified atmosphere (Łączkowski et al. [2014], [2016a]). Prior to usage, the compounds were dissolved in DMSO and culture medium (1: 9) to the concentration of 1 mg/ml, and subsequently diluted in culture medium to reach the required concentrations (0.1, 1, 10, and 100 µg/ml) (Łączkowski et al. [2014], [2016a]). Twenty-four hours prior to the addition of the tested compounds, the cells counted using Burker hemocytometer were plated in 96-well plates (Sarstedt, Germany) at a density of 1 × 10^4 cells per well. The assay was performed after 72 h of exposure to varying concentrations of the tested agents. The in vitro cytotoxic effect of all agents was examined using the SRB assay for adherent cells (A549, MCF-7, and BALB/3T3) or MTT assay for leukemia cells (MV4-11) as described previously. […] Each compound in each concentration was tested in triplicate in a single experiment, which was repeated 3–7 times (Rubinstein et al. [1990]; Bramson et al. [1995]). Cells were attached to the bottom of plastic wells by fixing them with cold 50% TCA (trichloroacetic acid, POCH, Gliwice, Poland) on top of the culture medium in each well. The plates were incubated at 4 °C for 1 h and then washed five times with tap water. The cellular material fixed with TCA was stained with 0.1% sulforhodamine B (SRB, Sigma-Aldrich, Germany) and dissolved in 1% acetic acid (POCH, Gliwice, Poland) for 30 min. Unbound dye was removed by rinsing (4×) in 1% acetic acid. The protein-bound dye was extracted with 10 mM unbuffered Tris base (Sigma-Aldrich, Germany) for determination of the optical density (λ = 540 nm) in a computer-interfaced, 96-well Synergy H4 (BioTek Instruments USA) photometer microtiter plate reader (Sidoryk et al. [2012]).

mouse L929 fibroblast = experiment: Cell viability assay (MTT), L929; assay type: cell-based; conditions: 24 h; for CC30 L929: concentration for 30% proliferation inhibition
Procedure: as §1, §2, §3

Row | SMILES | Viability VERO (VERO cells; 0.9 µg/ml) | Viability VERO (VERO cells; 1.8 µg/ml) | Viability VERO (VERO cells; 3.9 µg/ml) | Viability VERO (VERO cells; 7.8 µg/ml) | Viability VERO (VERO cells; 15.6 µg/ml) | Viability VERO (VERO cells; 31.2 µg/ml) | Viability VERO (VERO cells; 62.5 µg/ml) | Viability VERO (VERO cells; 125.0 µg/ml) | CC30 VERO (VERO cells) | IC50 Balb/3T3 ([1]; 72 h exposure) | Viability L929 (mouse L929 fibroblast; 0.9 µg/ml) | Viability L929 (mouse L929 fibroblast; 1.8 µg/ml) | Viability L929 (mouse L929 fibroblast; 3.9 µg/ml) | Viability L929 (mouse L929 fibroblast; 7.8 µg/ml) | Viability L929 (mouse L929 fibroblast; 15.6 µg/ml) | Viability L929 (mouse L929 fibroblast; 31.2 µg/ml) | Viability L929 (mouse L929 fibroblast; 62.5 µg/ml) | Viability L929 (mouse L929 fibroblast; 125.0 µg/ml) | CC30 L929 (mouse L929 fibroblast) | IC50 ([1]; Mus musculus, BALB/3T3, 72 h exposure)
1 | C/C(=N\Nc1nc(-c2cc3ccccc3oc2=O)cs1)c1ccc(Nc2nc(N)nc(N)n2)cc1 [Compound 4f, (E)-3-(2-(2-(1-(4-(4,6-diamino-1,3,5-triazin-2-yloamino)phenyl)ethylidene)hydrazinyl)thiazol-4-yl)-2H-chromen-2-on] | 97.81% | 100.84% | 104.30% | 104.39% | 108.19% | 117.52% | 103.77% | 111.27% | >125.0 µg/mL | >100 µg/mL | 98.99% | 102.21% | 101.95% | 96.25% | 100.89% | 104.60% | 109.54% | 108.66% | >125.0 µg/mL | –
2 | C/C(=N\Nc1nc(-c2ccc(I)cc2)cs1)c1ccc(Nc2nc(N)nc(N)n2)cc1 [Compound 4e, (E)-N^2-(4-(1-(2-(4-(4-iodophenyl)-1,3-thiazol-2-yl)hydrazinylidene)ethyl)phenyl)-1,3,5-triazine-2,4,6-triamine] | – | – | – | – | – | – | – | – | >125.0 µg/mL | – | – | – | – | – | – | – | – | – | >125.0 µg/mL | > 100 µg/mL
